Laboratory results published in ChEMBL document CHEMBL4507275, “Data for DCP probe BI-2545” (2021).

Legend:
[1] = target: Tyrosine-protein kinase JAK2 (Homo sapiens) (UniProt O60674); conditions: Compound concentration 1000.0 nM
[2] = target: Ephrin type-A receptor 1 (Homo sapiens) (UniProt P21709); conditions: Compound concentration 1000.0 nM
[3] = target: Serine/threonine-protein kinase TBK1 (Homo sapiens) (UniProt Q9UHD2); conditions: Compound concentration 1000.0 nM
[4] = target: Tyrosine-protein kinase FRK (Homo sapiens) (UniProt P42685); conditions: Compound concentration 1000.0 nM
[5] = target: NUAK family SNF1-like kinase 2 (Homo sapiens) (UniProt Q9H093); conditions: Compound concentration 1000.0 nM
[6] = target: Sigma intracellular receptor 2 (Homo sapiens) (UniProt Q5BJF2); conditions: Compound concentration 10.0 uM
[7] = target: Alpha-2C adrenergic receptor (Homo sapiens) (UniProt P18825); conditions: Compound concentration 10.0 uM
[8] = target: Serine/threonine-protein kinase 3 (Homo sapiens) (UniProt Q13188); conditions: Compound concentration 1000.0 nM
[9] = target: Ribosomal protein S6 kinase alpha-4 (Homo sapiens) (UniProt O75676); conditions: Compound concentration 1000.0 nM
[10] = target: Serine/threonine-protein kinase RIO1 (Homo sapiens) (UniProt Q9BRS2); conditions: Compound concentration 1000.0 nM
[11] = target: Tyrosine-protein kinase Yes (Homo sapiens) (UniProt P07947); conditions: Compound concentration 1000.0 nM
[12] = target: Tyrosine-protein kinase SYK (Homo sapiens) (UniProt P43405); conditions: Compound concentration 1000.0 nM
[13] = target: Serine/threonine-protein kinase WNK3 (Homo sapiens) (UniProt Q9BYP7); conditions: Compound concentration 1000.0 nM
[14] = target: Serine/threonine-protein kinase D1 (Homo sapiens) (UniProt Q15139); conditions: Compound concentration 1000.0 nM
[15] = target: Fibroblast growth factor receptor 2 (Homo sapiens) (UniProt P21802); conditions: Compound concentration 1000.0 nM
[16] = test system: Receptor-type tyrosine-protein kinase FLT3 (Homo sapiens), P36888 [N841I]; conditions: Compound concentration 1000.0 nM
[17] = target: Ephrin type-A receptor 3 (Homo sapiens) (UniProt P29320); conditions: Compound concentration 1000.0 nM
[18] = target: Mitogen-activated protein kinase kinase kinase 5 (Homo sapiens) (UniProt Q99683); conditions: Compound concentration 1000.0 nM
[19] = target: SRSF protein kinase 2 (Homo sapiens) (UniProt P78362); conditions: Compound concentration 1000.0 nM
[20] = target: Cyclin-dependent kinase 8 (Homo sapiens) (UniProt P49336); conditions: Compound concentration 1000.0 nM
[21] = target: Phosphatidylinositol 4,5-bisphosphate 3-kinase catalytic subunit gamma isoform (Homo sapiens) (UniProt P48736); conditions: Compound concentration 1000.0 nM
[22] = target: Serine/threonine-protein kinase 33 (Homo sapiens) (UniProt Q9BYT3); conditions: Compound concentration 1000.0 nM
[23] = target: Interleukin-1 receptor-associated kinase 3 (Homo sapiens) (UniProt Q9Y616); conditions: Compound concentration 1000.0 nM
[24] = target: Serine/threonine-protein kinase N2 (Homo sapiens) (UniProt Q16513); conditions: Compound concentration 1000.0 nM
[25] = target: Cyclin-dependent kinase 4 (Homo sapiens) (UniProt P11802); conditions: Compound concentration 1000.0 nM
[26] = target: Mitogen-activated protein kinase 3 (Homo sapiens) (UniProt P27361); conditions: Compound concentration 1000.0 nM
[27] = target: Mitogen-activated protein kinase kinase kinase 1 (Homo sapiens) (UniProt Q13233); conditions: Compound concentration 1000.0 nM
[28] = target: Casein kinase I isoform gamma-2 (Homo sapiens) (UniProt P78368); conditions: Compound concentration 1000.0 nM
[29] = target: Tyrosine-protein kinase receptor UFO (Homo sapiens) (UniProt P30530); conditions: Compound concentration 1000.0 nM
[30] = target: Vascular endothelial growth factor receptor 2 (Homo sapiens) (UniProt P35968); conditions: Compound concentration 1000.0 nM
[31] = test system: Tyrosine-protein kinase ABL1 (Homo sapiens), P00519 [M351T]; conditions: Compound concentration 1000.0 nM
[32] = target: Inhibitor of nuclear factor kappa-B kinase subunit epsilon (Homo sapiens) (UniProt Q14164); conditions: Compound concentration 1000.0 nM
[33] = target: Beta-1 adrenergic receptor (Homo sapiens) (UniProt P08588); conditions: Compound concentration 10.0 uM
[34] = target: Glycogen synthase kinase-3 beta (Homo sapiens) (UniProt P49841); conditions: Compound concentration 1000.0 nM
[35] = target: 5-hydroxytryptamine receptor 5A (Homo sapiens) (UniProt P47898); conditions: Compound concentration 10.0 uM
[36] = target: Tyrosine-protein kinase TXK (Homo sapiens) (UniProt P42681); conditions: Compound concentration 1000.0 nM
[37] = target: Death-associated protein kinase 1 (Homo sapiens) (UniProt P53355); conditions: Compound concentration 1000.0 nM
[38] = target: Phosphatidylinositol 4-phosphate 5-kinase type-1 gamma (Homo sapiens) (UniProt O60331); conditions: Compound concentration 1000.0 nM
[39] = target: Serine/threonine-protein kinase OSR1 (Homo sapiens) (UniProt O95747); conditions: Compound concentration 1000.0 nM
[40] = target: Tyrosine-protein kinase Fgr (Homo sapiens) (UniProt P09769); conditions: Compound concentration 1000.0 nM
[41] = target: Muscarinic acetylcholine receptor M4 (Homo sapiens) (UniProt P08173); conditions: Compound concentration 10.0 uM
[42] = target: Ribosomal protein S6 kinase alpha-1 (Homo sapiens) (UniProt Q15418); conditions: Compound concentration 1000.0 nM
[43] = target: Dual specificity mitogen-activated protein kinase kinase 6 (Homo sapiens) (UniProt P52564); conditions: Compound concentration 1000.0 nM
[44] = target: Kappa-type opioid receptor (Homo sapiens) (UniProt P41145); conditions: Compound concentration 10.0 uM
[45] = target: Phosphatidylinositol 4,5-bisphosphate 3-kinase catalytic subunit beta isoform (Homo sapiens) (UniProt P42338); conditions: Compound concentration 1000.0 nM
[46] = target: Interleukin-1 receptor-associated kinase 1 (Homo sapiens) (UniProt P51617); conditions: Compound concentration 1000.0 nM

Sequence of Serine/threonine-protein kinase 33 (Homo sapiens) (Q9BYT3 whole entry, looked up): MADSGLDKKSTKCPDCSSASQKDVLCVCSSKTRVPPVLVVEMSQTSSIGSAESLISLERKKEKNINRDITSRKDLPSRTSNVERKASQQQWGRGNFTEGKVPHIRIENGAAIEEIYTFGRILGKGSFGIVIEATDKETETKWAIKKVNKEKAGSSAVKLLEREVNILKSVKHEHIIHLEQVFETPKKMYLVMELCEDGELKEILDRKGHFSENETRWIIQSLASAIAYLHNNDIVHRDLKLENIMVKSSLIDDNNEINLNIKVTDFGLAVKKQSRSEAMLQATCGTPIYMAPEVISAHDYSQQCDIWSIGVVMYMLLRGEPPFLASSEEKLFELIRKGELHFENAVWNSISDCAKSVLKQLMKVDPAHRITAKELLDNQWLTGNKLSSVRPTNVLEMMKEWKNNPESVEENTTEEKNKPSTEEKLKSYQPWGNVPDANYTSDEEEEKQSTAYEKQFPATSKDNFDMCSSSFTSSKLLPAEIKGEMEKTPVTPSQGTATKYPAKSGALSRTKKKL
Sequence of Muscarinic acetylcholine receptor M4 (Homo sapiens) (P08173 whole entry): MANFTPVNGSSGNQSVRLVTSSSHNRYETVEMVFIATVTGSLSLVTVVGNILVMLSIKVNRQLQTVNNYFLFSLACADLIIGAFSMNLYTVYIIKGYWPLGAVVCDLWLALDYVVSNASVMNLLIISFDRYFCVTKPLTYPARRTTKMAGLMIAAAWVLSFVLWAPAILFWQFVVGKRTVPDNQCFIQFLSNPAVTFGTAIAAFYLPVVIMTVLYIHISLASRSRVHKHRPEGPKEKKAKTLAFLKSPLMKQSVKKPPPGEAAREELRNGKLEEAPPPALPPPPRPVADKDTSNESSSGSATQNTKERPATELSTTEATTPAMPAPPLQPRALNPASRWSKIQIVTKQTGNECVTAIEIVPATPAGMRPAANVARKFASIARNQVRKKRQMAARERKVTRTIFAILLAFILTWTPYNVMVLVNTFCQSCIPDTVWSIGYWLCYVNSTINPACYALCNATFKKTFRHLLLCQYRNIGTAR
Sequence of Ephrin type-A receptor 3 (Homo sapiens) (P29320 whole entry): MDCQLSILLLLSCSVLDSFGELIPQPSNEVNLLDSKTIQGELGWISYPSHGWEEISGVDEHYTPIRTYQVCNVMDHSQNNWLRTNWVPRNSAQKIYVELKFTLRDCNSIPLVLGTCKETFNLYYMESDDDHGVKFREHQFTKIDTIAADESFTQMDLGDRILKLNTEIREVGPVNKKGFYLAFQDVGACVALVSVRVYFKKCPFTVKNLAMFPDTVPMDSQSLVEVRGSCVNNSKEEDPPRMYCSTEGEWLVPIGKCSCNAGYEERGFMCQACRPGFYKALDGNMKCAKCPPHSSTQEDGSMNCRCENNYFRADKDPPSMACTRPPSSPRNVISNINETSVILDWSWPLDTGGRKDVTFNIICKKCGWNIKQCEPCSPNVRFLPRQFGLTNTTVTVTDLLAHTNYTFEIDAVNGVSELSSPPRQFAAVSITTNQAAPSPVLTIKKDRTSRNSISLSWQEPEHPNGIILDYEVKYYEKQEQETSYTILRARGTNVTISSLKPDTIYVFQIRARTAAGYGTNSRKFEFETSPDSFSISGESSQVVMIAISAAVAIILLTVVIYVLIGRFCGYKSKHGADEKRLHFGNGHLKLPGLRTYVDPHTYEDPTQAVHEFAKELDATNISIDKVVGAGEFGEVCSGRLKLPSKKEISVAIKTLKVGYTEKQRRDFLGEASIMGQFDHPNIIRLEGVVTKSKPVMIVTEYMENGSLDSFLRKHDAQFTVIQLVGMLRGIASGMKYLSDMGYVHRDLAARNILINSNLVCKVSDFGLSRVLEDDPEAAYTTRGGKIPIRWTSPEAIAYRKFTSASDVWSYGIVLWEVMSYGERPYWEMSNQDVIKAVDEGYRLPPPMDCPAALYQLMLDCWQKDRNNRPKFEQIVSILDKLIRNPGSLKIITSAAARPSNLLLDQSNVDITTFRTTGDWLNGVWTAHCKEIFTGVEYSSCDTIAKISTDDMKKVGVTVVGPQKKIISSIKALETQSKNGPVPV
Sequence of Kappa-type opioid receptor (Homo sapiens) (P41145 whole entry, canonical isoform): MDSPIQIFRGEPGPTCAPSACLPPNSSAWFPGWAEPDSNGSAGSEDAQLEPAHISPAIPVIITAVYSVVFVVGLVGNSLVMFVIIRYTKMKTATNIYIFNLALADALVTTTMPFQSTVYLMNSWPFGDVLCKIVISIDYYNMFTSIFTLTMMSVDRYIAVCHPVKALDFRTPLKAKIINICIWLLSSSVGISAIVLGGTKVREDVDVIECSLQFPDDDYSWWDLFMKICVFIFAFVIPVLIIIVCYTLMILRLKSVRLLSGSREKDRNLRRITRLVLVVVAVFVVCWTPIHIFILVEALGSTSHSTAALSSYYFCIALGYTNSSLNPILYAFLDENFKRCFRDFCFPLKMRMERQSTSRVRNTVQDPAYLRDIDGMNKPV
Sequence of Sigma intracellular receptor 2 (Homo sapiens) (Q5BJF2 whole entry): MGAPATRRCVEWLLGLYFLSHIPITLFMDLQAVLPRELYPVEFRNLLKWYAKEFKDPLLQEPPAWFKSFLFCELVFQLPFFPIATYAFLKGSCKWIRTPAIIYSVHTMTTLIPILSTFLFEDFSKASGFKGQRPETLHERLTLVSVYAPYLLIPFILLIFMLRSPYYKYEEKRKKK
Sequence of Casein kinase I isoform gamma-2 (Homo sapiens) (P78368 whole entry, looked up, canonical isoform): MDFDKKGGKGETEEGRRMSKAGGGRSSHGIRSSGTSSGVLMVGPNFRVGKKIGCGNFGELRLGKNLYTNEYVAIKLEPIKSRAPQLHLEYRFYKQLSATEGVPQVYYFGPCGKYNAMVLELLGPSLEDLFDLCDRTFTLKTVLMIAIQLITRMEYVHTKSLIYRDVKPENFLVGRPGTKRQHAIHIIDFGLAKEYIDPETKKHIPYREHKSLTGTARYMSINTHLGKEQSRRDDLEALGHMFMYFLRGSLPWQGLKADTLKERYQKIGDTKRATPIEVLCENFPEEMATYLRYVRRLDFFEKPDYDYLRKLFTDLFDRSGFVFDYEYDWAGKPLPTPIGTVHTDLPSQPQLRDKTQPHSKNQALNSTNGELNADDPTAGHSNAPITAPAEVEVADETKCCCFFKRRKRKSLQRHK
Sequence of Tyrosine-protein kinase JAK2 (Homo sapiens) (O60674 whole entry): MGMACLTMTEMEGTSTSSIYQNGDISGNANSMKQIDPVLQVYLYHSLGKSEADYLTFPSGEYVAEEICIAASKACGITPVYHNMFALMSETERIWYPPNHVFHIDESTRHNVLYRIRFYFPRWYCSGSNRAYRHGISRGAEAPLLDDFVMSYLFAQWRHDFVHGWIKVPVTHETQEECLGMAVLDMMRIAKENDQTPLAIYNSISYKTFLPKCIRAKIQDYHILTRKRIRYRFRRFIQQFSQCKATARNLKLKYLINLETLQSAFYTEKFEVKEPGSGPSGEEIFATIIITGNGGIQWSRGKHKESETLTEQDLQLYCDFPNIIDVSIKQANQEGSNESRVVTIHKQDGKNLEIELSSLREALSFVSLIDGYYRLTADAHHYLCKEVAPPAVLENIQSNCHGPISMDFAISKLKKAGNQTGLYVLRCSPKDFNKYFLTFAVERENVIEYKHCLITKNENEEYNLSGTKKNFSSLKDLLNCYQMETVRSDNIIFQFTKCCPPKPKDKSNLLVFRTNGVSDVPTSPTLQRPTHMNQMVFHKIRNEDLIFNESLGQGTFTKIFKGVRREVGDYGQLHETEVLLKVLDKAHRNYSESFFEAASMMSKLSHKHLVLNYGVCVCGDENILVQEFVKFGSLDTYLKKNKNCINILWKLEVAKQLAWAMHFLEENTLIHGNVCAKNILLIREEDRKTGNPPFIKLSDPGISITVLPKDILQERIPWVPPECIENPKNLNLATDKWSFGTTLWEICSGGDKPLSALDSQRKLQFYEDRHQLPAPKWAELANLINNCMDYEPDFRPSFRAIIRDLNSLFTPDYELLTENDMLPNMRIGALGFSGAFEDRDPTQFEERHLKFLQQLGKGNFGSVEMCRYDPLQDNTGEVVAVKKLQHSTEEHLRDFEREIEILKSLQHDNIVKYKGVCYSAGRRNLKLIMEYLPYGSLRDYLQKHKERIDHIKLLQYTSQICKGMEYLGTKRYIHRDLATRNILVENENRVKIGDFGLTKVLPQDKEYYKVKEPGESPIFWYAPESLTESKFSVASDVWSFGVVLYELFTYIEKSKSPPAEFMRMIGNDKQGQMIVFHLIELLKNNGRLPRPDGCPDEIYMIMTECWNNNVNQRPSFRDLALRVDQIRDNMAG
Sequence of Ribosomal protein S6 kinase alpha-4 (Homo sapiens) (O75676 whole entry, looked up): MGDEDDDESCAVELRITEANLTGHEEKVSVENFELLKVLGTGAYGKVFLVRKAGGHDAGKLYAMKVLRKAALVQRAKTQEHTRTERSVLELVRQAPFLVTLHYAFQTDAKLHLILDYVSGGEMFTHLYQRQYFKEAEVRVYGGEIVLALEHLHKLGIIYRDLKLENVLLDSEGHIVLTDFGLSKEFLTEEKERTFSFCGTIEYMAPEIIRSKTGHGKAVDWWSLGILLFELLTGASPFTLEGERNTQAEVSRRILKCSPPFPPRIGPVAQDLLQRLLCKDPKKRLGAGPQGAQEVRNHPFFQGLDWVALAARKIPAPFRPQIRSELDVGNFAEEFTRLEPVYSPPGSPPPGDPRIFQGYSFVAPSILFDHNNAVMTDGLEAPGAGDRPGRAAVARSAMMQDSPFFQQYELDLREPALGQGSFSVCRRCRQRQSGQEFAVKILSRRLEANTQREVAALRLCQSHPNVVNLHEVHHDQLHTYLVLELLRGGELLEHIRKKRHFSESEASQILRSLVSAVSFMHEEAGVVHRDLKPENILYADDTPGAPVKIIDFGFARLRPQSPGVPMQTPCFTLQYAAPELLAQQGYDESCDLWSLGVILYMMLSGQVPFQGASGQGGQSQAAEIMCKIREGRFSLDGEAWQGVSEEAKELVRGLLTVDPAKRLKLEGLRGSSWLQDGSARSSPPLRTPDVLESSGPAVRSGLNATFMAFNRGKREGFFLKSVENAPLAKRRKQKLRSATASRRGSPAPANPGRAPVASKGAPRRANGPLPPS

With `Cc1nccc(COC(=O)N2C[C@@H]3[C@@H](CNC(=O)c4ccc5[nH]nnc5c4)[C@@H]3C2)n1` [BI 3017] the residual activity [1] was 93%, the residual activity [2] was 100% and the residual activity [3] was 96%. For the same molecule, the residual activity [4] was 100%, the residual activity [5] was 100% and the inhibition [6] was -2.9%. The inhibition [7] was 3.82%, the residual activity [8] was 97% and the residual activity [9] was 90%. For the same molecule, the residual activity [10] was 100%, the residual activity [11] was 100% and the residual activity [12] was 100%. For the same molecule, the residual activity [13] was 91%, the residual activity [14] was 100% and the residual activity [15] was 78%. For the same molecule, the residual activity [16] was 82%, the residual activity [17] was 93% and the residual activity [18] was 95%. It also gave a residual activity [19] of 77%, a residual activity [20] of 75% and a residual activity [21] of 89%. For the same molecule, the residual activity [22] was 93%, the residual activity [23] was 100% and the residual activity [24] was 100%. The residual activity [25] was 90%, the residual activity [26] was 92% and the residual activity [27] was 85%. The residual activity [28] was 96%, the residual activity [29] was 88% and the residual activity [30] was 80%. It also gave a residual activity [31] of 95%, a residual activity [32] of 100% and an inhibition [33] of 12.4%. For the same molecule, the residual activity [34] was 100%, the inhibition [35] was 13.2% and the residual activity [36] was 94%. The residual activity [37] was 95%, the residual activity [38] was 93% and the residual activity [39] was 100%. For the same molecule, the residual activity [40] was 100%, the inhibition [41] was 16.1% and the residual activity [42] was 96%. For the same molecule, the residual activity [43] was 100%, the inhibition [44] was 9.47% and the residual activity [45] was 84%. The residual activity [46] was 81%.

`O=C(NC[C@@H]1[C@H]2CN(C(=O)OCc3cc(C(F)(F)F)cc(C(F)(F)F)c3)C[C@@H]12)c1ccc2[nH]nnc2c1` [BI 2545] showed a residual activity [1] of 100%, a residual activity [2] of 100% and a residual activity [3] of 100%. The residual activity [4] was 83%, the residual activity [5] was 88% and the inhibition [6] was 44.9%. The inhibition [7] was 19%, the residual activity [8] was 87% and the residual activity [9] was 86%. The residual activity [10] was 69%, the residual activity [11] was 100% and the residual activity [12] was 100%. The residual activity [13] was 100%, the residual activity [14] was 100% and the residual activity [15] was 100%. For the same molecule, the residual activity [16] was 90%, the residual activity [17] was 100% and the residual activity [18] was 13%. The residual activity [19] was 100%, the residual activity [20] was 100% and the residual activity [21] was 76%. It also gave a residual activity [22] of 84%, a residual activity [23] of 84% and a residual activity [24] of 93%. The residual activity [25] was 100%, the residual activity [26] was 100% and the residual activity [27] was 71%. The residual activity [28] was 100%, the residual activity [29] was 87% and the residual activity [30] was 96%. It also gave a residual activity [31] of 98%, a residual activity [32] of 100% and an inhibition [33] of 13.3%. It also gave a residual activity [34] of 98%, an inhibition [35] of 33.2% and a residual activity [36] of 84%. For the same molecule, the residual activity [37] was 93%, the residual activity [38] was 98% and the residual activity [39] was 85%. The residual activity [40] was 88%, the inhibition [41] was 14.2% and the residual activity [42] was 83%. It also gave a residual activity [43] of 72%, an inhibition [44] of 27.8% and a residual activity [45] of 100%. It also gave a residual activity [46] of 98%.
